From ChEMBL document CHEMBL1129290 (J Med Chem, 1996)

tested on: not listed separately; test: in vivo; conditions: rat

Row | half-life [h] | Structure (SMILES)
1 | 2.3 | CS(=O)(=O)c1ccc(C2=C(c3ccc(F)cc3)CC3(CC3)C2)cc1
2 | 1.6 | CS(=O)(=O)c1ccc(C2=C(c3ccc(F)cc3)CCC2)cc1 [SC-57666]

species: Rattus norvegicus; test: animal or person; conditions: read-out: Inhibition

Row | Structure (SMILES) | inhibition in vivo at 1 mg/kg [%]
3 | COc1c(Cl)cc(C2=C(c3ccc(S(C)(=O)=O)cc3)CC3(CC3)C2)cc1Cl | 57
4 | CS(=O)(=O)c1ccc(C2=C(c3ccc(F)cc3)CC3(CC3)C2)cc1 | 68
5 | COc1ccc(C2=C(c3ccc(S(N)(=O)=O)cc3)CC3(CC3)C2)cc1Cl | 79
6 | NS(=O)(=O)c1ccc(C2=C(c3ccc(F)cc3)CC3(CC3)C2)cc1 | 85
7 | COc1ccc(C2=C(c3ccc(S(N)(=O)=O)cc3)CC3(CC3)C2)cc1F | 89

target: Prostaglandin G/H synthase 1 (Homo sapiens, UniProt P23219); test: not given; conditions: not given
Sequence (P23219 whole entry): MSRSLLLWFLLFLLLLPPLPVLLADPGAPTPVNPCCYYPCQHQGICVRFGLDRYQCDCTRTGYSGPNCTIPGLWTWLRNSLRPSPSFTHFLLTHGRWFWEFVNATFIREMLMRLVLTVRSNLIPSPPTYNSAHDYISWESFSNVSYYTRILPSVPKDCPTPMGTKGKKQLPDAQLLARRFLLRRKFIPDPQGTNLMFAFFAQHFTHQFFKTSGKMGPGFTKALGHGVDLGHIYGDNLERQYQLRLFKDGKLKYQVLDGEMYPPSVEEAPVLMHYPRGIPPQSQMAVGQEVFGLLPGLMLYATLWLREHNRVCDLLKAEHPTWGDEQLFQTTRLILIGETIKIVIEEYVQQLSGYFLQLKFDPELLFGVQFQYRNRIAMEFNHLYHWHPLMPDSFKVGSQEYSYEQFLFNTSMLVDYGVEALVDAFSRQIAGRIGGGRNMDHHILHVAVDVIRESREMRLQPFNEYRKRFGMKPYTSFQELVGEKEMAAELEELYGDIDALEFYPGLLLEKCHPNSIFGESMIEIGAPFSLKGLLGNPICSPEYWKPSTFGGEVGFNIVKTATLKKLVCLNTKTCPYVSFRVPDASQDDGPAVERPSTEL

Row | IC50 [nM] | Structure (SMILES)
8 | 1320 | CS(=O)(=O)c1ccc(C2=CC3(C=C2c2ccc(F)cc2)CC3)cc1
9 | 3380 | COc1ccc(C2=CC3(C=C2c2ccc(S(C)(=O)=O)cc2)CC3)cc1Cl
10 | 380 | NS(=O)(=O)c1ccc(C2=C(c3ccc(Cl)c(Cl)c3)CC3(CC3)C2)cc1

species: Rattus norvegicus; test: animal or person; type: functional; conditions: not given

Row | Structure (SMILES) | ED50 [mg/kg]
11 | COc1c(Cl)cc(C2=C(c3ccc(S(C)(=O)=O)cc3)CC3(CC3)C2)cc1Cl | 32.7
12 | COc1ccc(C2=C(c3ccc(S(C)(=O)=O)cc3)CC3(CC3)C2)cc1Cl | 27.7
13 | NS(=O)(=O)c1ccc(C2=C(c3ccc(C(F)(F)F)cc3)CC3(CC3)C2)cc1 | 46.7
14 | COc1ccc(C2=C(c3ccc(S(N)(=O)=O)cc3)CC3(CC3)C2)cc1Cl | 35.4
15 | NS(=O)(=O)c1ccc(C2=C(c3ccc(F)cc3)CC3(CC3)C2)cc1 | 17.6
16 | COc1ccc(C2=C(c3ccc(S(N)(=O)=O)cc3)CC3(CC3)C2)cc1F | 40.8
17 | NS(=O)(=O)c1ccc(C2=C(c3ccc(Cl)c(Cl)c3)CC3(CC3)C2)cc1 | 31.3

species: Rattus norvegicus; test: animal or person; conditions: read-out: Inhibition; remark: another data set of the same source

Row | Structure (SMILES) | inhibition in vivo at 2 mg/kg [%]
18 | COc1ccc(C2=C(c3ccc(S(C)(=O)=O)cc3)CC3(CC3)C2)cc1Cl | 12
19 | NS(=O)(=O)c1ccc(C2=C(c3ccc(C(F)(F)F)cc3)CC3(CC3)C2)cc1 | 92
20 | COc1ccc(C2=C(c3ccc(S(C)(=O)=O)cc3)CC3(CC3)C2)cc1F | 63

species: Rattus norvegicus; test: animal or person; conditions: read-out: Inhibition; remark: another data set of the same source

Row | Structure (SMILES) | inhibition in vivo at 30 mg/kg [%]
21 | COc1c(Cl)cc(C2=C(c3ccc(S(C)(=O)=O)cc3)CC3(CC3)C2)cc1Cl | 50
22 | COc1ccc(C2=C(c3ccc(S(C)(=O)=O)cc3)CC3(CC3)C2)cc1Cl | 45
23 | CS(=O)(=O)c1ccc(C2=C(c3ccc(F)cc3)CC3(CC3)C2)cc1 | 31
24 | NS(=O)(=O)c1ccc(C2=C(c3ccc(C(F)(F)F)cc3)CC3(CC3)C2)cc1 | 40
25 | COc1ccc(C2=C(c3ccc(S(N)(=O)=O)cc3)CC3(CC3)C2)cc1Cl | 47
26 | COc1ccc(C2=C(c3ccc(S(C)(=O)=O)cc3)CC3(CC3)C2)cc1F | 19
27 | COc1ccc(C2=C(c3ccc(S(N)(=O)=O)cc3)CC3(CC3)C2)cc1F | 38

tested on: not listed separately; test: in vivo; conditions: rat, po, 10 mg/kg

Row | bioavailability [%] | Structure (SMILES)
28 | 58 | CS(=O)(=O)c1ccc(C2=C(c3ccc(F)cc3)CC3(CC3)C2)cc1
29 | 11 | CS(=O)(=O)c1ccc(C2=C(c3ccc(F)cc3)CCC2)cc1 [SC-57666]

species: Rattus norvegicus; test: animal or person; conditions: read-out: Inhibition; remark: another data set of the same source

Row | Structure (SMILES) | inhibition in vivo at 0.3 mg/kg [%]
30 | NS(=O)(=O)c1ccc(C2=C(c3ccc(Cl)c(Cl)c3)CC3(CC3)C2)cc1 | 72

target: Cyclooxygenase (Rattus norvegicus) (UniProt P35355+Q63921); test: not given; conditions: at 30 mg/kg

Row | Structure (SMILES) | inhibition [%]
31 | COc1c(Cl)cc(C2=C(c3ccc(S(C)(=O)=O)cc3)CC3(CC3)C2)cc1Cl | 44
32 | CS(=O)(=O)c1ccc(C2=C(c3ccc(C(F)(F)F)cc3)CC3(CC3)C2)cc1 | 35
33 | COc1ccc(C2=C(c3ccc(S(C)(=O)=O)cc3)CC3(CC3)C2)cc1 | 0
34 | CS(=O)(=O)c1ccc(C2=C(c3ccc(F)cc3)CC3(CC3)C2)cc1 | 49
35 | NS(=O)(=O)c1ccc(C2=C(c3ccc(C(F)(F)F)cc3)CC3(CC3)C2)cc1 | 46
36 | CS(=O)(=O)c1ccc(C2=C(c3ccc(F)c(F)c3)CC3(CC3)C2)cc1 | 23
37 | CS(=O)(=O)c1ccc(C2=C(c3ccc(OC(F)(F)F)cc3)CC3(CC3)C2)cc1 | 20
38 | CS(=O)(=O)c1ccc(C2=C(c3ccc(F)cc3)CC3(CCC3)C2)cc1 | 23

More lines, now with the values ahead:

Row | inhibition [%] | Structure (SMILES)
39 | 21 | COc1ccc(C2=C(c3ccc(S(C)(=O)=O)cc3)CC3(CC3)C2)cc1Br
40 | 42 | COc1ccc(C2=C(c3ccc(S(C)(=O)=O)cc3)CC3(CC3)C2)cc1Cl
41 | 38 | CS(=O)(=O)c1ccc(C2=C(c3ccc(F)c(Cl)c3)CC3(CC3)C2)cc1
42 | 47 | COc1ccc(C2=C(c3ccc(S(N)(=O)=O)cc3)CC3(CC3)C2)cc1Cl
43 | 60 | NS(=O)(=O)c1ccc(C2=C(c3ccc(F)cc3)CC3(CC3)C2)cc1
44 | 30 | COc1ccc(C2=C(c3ccc(S(C)(=O)=O)cc3)CC3(CC3)C2)cc1F
45 | 40 | COc1ccc(C2=C(c3ccc(S(N)(=O)=O)cc3)CC3(CC3)C2)cc1F
46 | 18 | NS(=O)(=O)c1ccc(C2=C(c3ccc(F)c(F)c3)CC3(CC3)C2)cc1
47 | 23 | CS(=O)(=O)c1ccc(C2=C(c3ccc(Cl)c(Cl)c3)CC3(CC3)C2)cc1

species: Rattus norvegicus; test: animal or person; type: functional; conditions: not given; remark: another data set of the same source

Row | Structure (SMILES) | ED50 [mg/kg]
48 | COc1c(Cl)cc(C2=C(c3ccc(S(C)(=O)=O)cc3)CC3(CC3)C2)cc1Cl | 0.52
49 | CS(=O)(=O)c1ccc(C2=C(c3ccc(F)cc3)CC3(CC3)C2)cc1 | 0.3
50 | NS(=O)(=O)c1ccc(C2=C(c3ccc(C(F)(F)F)cc3)CC3(CC3)C2)cc1 | 0.04
51 | COc1ccc(C2=C(c3ccc(S(N)(=O)=O)cc3)CC3(CC3)C2)cc1Cl | 0.21
52 | NS(=O)(=O)c1ccc(C2=C(c3ccc(F)cc3)CC3(CC3)C2)cc1 | 0.24
53 | COc1ccc(C2=C(c3ccc(S(N)(=O)=O)cc3)CC3(CC3)C2)cc1F | 0.08
